This is an account of results in patent US8778966B2, “Quinolinone derivatives as PARP and tank inhibitors” (Janssen Pharmaceutica, NV, priority 2007, dated 2014).

This experiment has as its target T1, TANK-2 enzyme (Homo sapiens, UniProt Q9H2K2).
T1 construct: made in house
T1 sequence (Q9H2K2 1-1166): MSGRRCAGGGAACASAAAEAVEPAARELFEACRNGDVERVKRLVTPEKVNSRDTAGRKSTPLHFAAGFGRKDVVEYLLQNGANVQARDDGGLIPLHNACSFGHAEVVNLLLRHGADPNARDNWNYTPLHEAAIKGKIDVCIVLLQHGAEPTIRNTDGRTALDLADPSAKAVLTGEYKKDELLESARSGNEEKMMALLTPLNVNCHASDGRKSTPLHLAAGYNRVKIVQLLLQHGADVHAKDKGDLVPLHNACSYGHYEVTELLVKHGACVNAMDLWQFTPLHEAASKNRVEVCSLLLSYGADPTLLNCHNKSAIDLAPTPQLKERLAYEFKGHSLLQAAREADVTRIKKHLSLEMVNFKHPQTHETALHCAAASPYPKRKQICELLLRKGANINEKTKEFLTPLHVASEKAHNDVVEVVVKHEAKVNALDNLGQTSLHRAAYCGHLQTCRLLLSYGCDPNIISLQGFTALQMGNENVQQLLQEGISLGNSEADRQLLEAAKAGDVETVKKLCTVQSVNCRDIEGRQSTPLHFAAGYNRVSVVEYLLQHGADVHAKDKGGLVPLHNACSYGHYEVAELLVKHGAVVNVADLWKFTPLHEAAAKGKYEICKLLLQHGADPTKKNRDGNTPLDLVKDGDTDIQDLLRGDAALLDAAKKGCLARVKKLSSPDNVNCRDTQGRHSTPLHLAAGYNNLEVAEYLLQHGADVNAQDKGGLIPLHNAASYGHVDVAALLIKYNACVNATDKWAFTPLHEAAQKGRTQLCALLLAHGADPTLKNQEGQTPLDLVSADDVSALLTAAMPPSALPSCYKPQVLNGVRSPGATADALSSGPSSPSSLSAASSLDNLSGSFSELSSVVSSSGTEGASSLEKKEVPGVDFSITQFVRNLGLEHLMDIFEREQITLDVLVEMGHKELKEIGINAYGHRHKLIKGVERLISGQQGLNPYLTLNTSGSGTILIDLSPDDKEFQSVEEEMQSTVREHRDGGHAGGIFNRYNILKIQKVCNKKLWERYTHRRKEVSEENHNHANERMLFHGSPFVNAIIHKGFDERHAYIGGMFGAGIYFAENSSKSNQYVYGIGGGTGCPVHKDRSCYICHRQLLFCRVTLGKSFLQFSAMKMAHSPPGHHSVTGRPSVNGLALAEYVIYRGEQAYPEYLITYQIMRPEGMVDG
The experiment can be described thus: In vitro Scintillation Proximity Assay (SPA) for TANK-2 inhibitory activity. The conditions noted are these: read-out: in vitro SPA assay TANK-2 pIC50 (converted). In kind it is biochemical. As to the method:
Compounds of the present invention were tested in an in vitro assay based on SPA technology with Ni Flash plates (96 or 384 well). In principle, the assay relies upon SPA technology for the detection of auto-poly(ADP-ribosyl)ation of TANK-2 protein using [^3H]-nicotinamide adenine dinucleotide ([^3H]-NAD^+) as ADP-ribosyl donor.
A stock solution of 100 nM [3H]-NAD^+/NAD (0.1 mCi/ml, supplier: Perkin Elmer) and 0.25 μM NAD (Sigma) was made in assay buffer (60 mM Tris/HCl, pH 7.4; 0.9 mM DTT; 6 mM MgCl2). The TANK-2 enzyme was produced as described in EP1238063. 60 μl of assay buffer, together with 1 μl of compound in DMSO, 20 μl of [^3H]-NAD^+/NAD and 20 μl of TANK-2 enzyme (final concentration 8 μg/ml) was added per well into a 96-well Ni-coated flash plate (Perkin Elmer). After incubation of the mixture for 120 min. at room temperature, the reaction was terminated by adding 60 μl of stopsolution (42.6 mg NAD in 6 ml H2O). The plates were covered with a plate sealer and placed in a TopCountNXT™ (Packard) for scintillation counting. Values were expressed as counts per minute (cpm). For each experiment, controls (containing TANK-2 enzyme and DMSO without compound), a blank incubation (containing DMSO but no TANK-2 enzyme or compound) and samples (containing TANK-2 enzyme and compound dissolved in DMSO) were run in parallel. All compounds tested were dissolved and eventually further diluted in DMSO. In first instance, compounds were tested at a concentration of 10^−5M. […] In each test, the blank value was subtracted from both the control and the sample values. The control sample represented maximal TANK-2 enzyme activity. For each sample, the amount of cpm was expressed as a percentage of the mean cpm value of the controls. When appropriate, IC50-values (concentration of the drug, needed to reduce the TANK-2 enzyme activity to 50% of the control) were computed using linear interpolation between the experimental points just above and below the 50% level. Herein the effects of test compounds are expressed as pIC50 (the negative log value of the IC50-value). As reference compounds, 3-aminobenzamide and 4-amino-1,8-naphtalimide were included to validate the SPA assay. Herein the assay was described using 96-well plates. In the assay using 384-well plates the same final concentrations were used and volumes were adapted.

On to `C#Cc1cccc(CC(C)(C#N)c2ccc3cc(CC)c(=O)[nH]c3c2)c1` (racemic) [Compound 168], for which the IC50 is 79.4 nM.
The same measure for `CCc1cc2ccc(C(C)(C#N)CC3COc4ccccc4O3)cc2[nH]c1=O` (single isomer, unassigned) [Compound 48]: 200 nM; for `CCc1cc2ccc([C@@](C)(C#N)CCOc3ccccc3)cc2[nH]c1=O` (single isomer, unassigned) [Compound 150]: 200 nM.
The same measure for `Cc1cc2ccc([C@@](C)(C#N)CCOc3ccccc3)cc2[nH]c1=O` (single isomer, unassigned) [Compound 164]: 631 nM; for `CCc1cc2ccc(C(C)(C#N)Cc3cccc(C(=O)O)c3)cc2[nH]c1=O` (stereo not drawn) [Compound 10]: 50.1 nM; for `CCc1cc2ccc(C(C)(C#N)Cc3cccc(-c4nc(C)no4)c3)cc2[nH]c1=O` (stereo not drawn) [Compound 11]: 79.4 nM.
The same measure for `CCc1cc2ccc(C(C)(C#N)Cc3cccc(C(=O)OC)c3)cc2[nH]c1=O` (stereo not drawn) [Compound 12]: 100 nM; for `CCc1cc2ccc(C(C)(C#N)Cc3cccc(C(=O)NC)c3)cc2[nH]c1=O` (stereo not drawn) [Compound 13]: 63.1 nM.
For the compound `CCc1cc2ccc(C(C)(C#N)Cc3cccc(NS(C)(=O)=O)c3)cc2[nH]c1=O` (stereo not drawn) [Compound 14], the IC50 was 79.4 nM.
Consider `CCc1cc2ccc(C(C)(C#N)Cc3cccc(N)c3)cc2[nH]c1=O` (stereo not drawn) [Compound 15], for which the IC50 is 100 nM.
With `CCc1cc2ccc(C(C)(C#N)Cc3cccc(NC(=O)N4CCOCC4)c3)cc2[nH]c1=O` (stereo not drawn) [Compound 16], the IC50 is 79.4 nM.
Then `CCc1cc2ccc(C(C)(C#N)Cc3ccccc3Br)cc2[nH]c1=O` (stereo not drawn) [Compound 104], with 63.1 nM; and `CCc1cc2ccc(C(C)(C#N)Cc3ccccc3C)cc2[nH]c1=O` (stereo not drawn) [Compound 105], with 20 nM; and `CCc1cc2ccc(C(C)(C#N)Cc3ccccc3F)cc2[nH]c1=O` (stereo not drawn) [Compound 106], with 50.1 nM.
The same measure for `CCc1cc2ccc(C(C)(C#N)Cc3cccc(C)c3)cc2[nH]c1=O` (stereo not drawn) [Compound 107]: 31.6 nM; for `CCc1cc2ccc(C(C)(C#N)Cc3ccc(C(F)(F)F)cc3)cc2[nH]c1=O` (stereo not drawn) [Compound 108]: 126 nM; for `CCc1cc2ccc(C(C)(C#N)Cc3cccc(C(F)(F)F)c3)cc2[nH]c1=O` (stereo not drawn) [Compound 109]: 79.4 nM.
The same measure for `CCc1cc2ccc(C(C)(C#N)Cc3cccc(OC(F)(F)F)c3)cc2[nH]c1=O` (stereo not drawn) [Compound 110]: 126 nM; for `CCc1cc2ccc(C(C)(C#N)Cc3ccc(C#N)cc3)cc2[nH]c1=O` (stereo not drawn) [Compound 111]: 31.6 nM.
Take `CCc1cc2ccc(C(C)(C#N)Cc3cccc(F)c3)cc2[nH]c1=O` (stereo not drawn) [Compound 112]: the IC50 was 25.1 nM.
The same measure for `CCc1cc2ccc(C(C)(C#N)Cc3cccc(OC)c3)cc2[nH]c1=O` (stereo not drawn) [Compound 113]: 20 nM; for `CCc1cc2ccc(C(C)(C#N)Cc3ccc(OC(F)(F)F)cc3)cc2[nH]c1=O` (stereo not drawn) [Compound 114]: 501 nM.
The same measure for `CCc1cc2ccc(C(C)(C#N)Cc3ccc(F)cc3)cc2[nH]c1=O` (stereo not drawn) [Compound 115]: 31.6 nM; for `CCc1cc2ccc(C(C)(C#N)Cc3c(F)c(F)c(F)c(F)c3F)cc2[nH]c1=O` (stereo not drawn) [Compound 116]: 79.4 nM.
The same measure for `CCc1cc2ccc(C(C)(C#N)Cc3ccc(C)cc3)cc2[nH]c1=O` (stereo not drawn) [Compound 117]: 25.1 nM; for `CCc1cc2ccc(C(C)(C#N)Cc3ccc(Br)cc3)cc2[nH]c1=O` (stereo not drawn) [Compound 118]: 31.6 nM.
`CCc1cc2ccc(C(C)(C#N)Cc3ccc(OC)cc3)cc2[nH]c1=O` (stereo not drawn) [Compound 119]: the IC50 is 31.6 nM.
The same measure for `CCc1cc2ccc(C(C)(C#N)Cc3cccc(F)c3F)cc2[nH]c1=O` (stereo not drawn) [Compound 120]: 50.1 nM; for `CCc1cc2ccc(C(C)(C#N)Cc3cccc(Cl)c3Cl)cc2[nH]c1=O` (stereo not drawn) [Compound 121]: 79.4 nM; for `CCc1cc2ccc(C(C)(C#N)Cc3ccc4ccccc4c3)cc2[nH]c1=O` (stereo not drawn) [Compound 122]: 100 nM.
For `CCc1cc2ccc(C(C)(C#N)Cc3ccc4c(c3)nnn4C)cc2[nH]c1=O` (stereo not drawn) [Compound 123], the IC50 was 100 nM.
Regarding `CCc1cc2ccc(C(C)(C#N)Cc3ccc4c(c3)OCCO4)cc2[nH]c1=O` (stereo not drawn) [Compound 124], the IC50 was 100 nM.
Then `CCc1cc2ccc(C(C)(C#N)Cc3cc(C)cc(C)c3)cc2[nH]c1=O` (stereo not drawn) [Compound 125], with 100 nM.
Then `CCc1cc2ccc(C(C)(C#N)Cc3cc(F)cc(Cl)c3)cc2[nH]c1=O` (stereo not drawn) [Compound 126], with 100 nM.
Then `CCc1cc2ccc(C(C)(C#N)Cc3cc(F)cc(C(F)(F)F)c3)cc2[nH]c1=O` (stereo not drawn) [Compound 127], with 398 nM.
Consider `CCc1cc2ccc(C(C)(C#N)Cc3cc(F)cc(F)c3)cc2[nH]c1=O` (stereo not drawn) [Compound 128], for which the IC50 was 158 nM.
Then `CCc1cc2ccc(C(C)(C#N)Cc3cccc(S(C)(=O)=O)c3)cc2[nH]c1=O` (stereo not drawn) [Compound 129], with 126 nM; and `CCc1cc2ccc(C(C)(C#N)Cc3cccc(Cl)c3F)cc2[nH]c1=O` (stereo not drawn) [Compound 130], with 79.4 nM.
Then `CCc1cc2ccc(C(C)(C#N)Cc3cc(C(F)(F)F)cc(C(F)(F)F)c3)cc2[nH]c1=O` (stereo not drawn) [Compound 131], with 1000 nM.
Then `CCc1cc2ccc(C(C)(C#N)Cc3cccc(C)c3F)cc2[nH]c1=O` (stereo not drawn) [Compound 132], with 63.1 nM; and `CCc1cc2ccc(C(C)(C#N)Cc3cc(Br)cc(Br)c3)cc2[nH]c1=O` (stereo not drawn) [Compound 133], with 200 nM.
With `CCc1cc2ccc(C(C)(C#N)Cc3cccc(C(F)(F)F)c3F)cc2[nH]c1=O` (stereo not drawn) [Compound 134], the IC50 is 126 nM.
On to `CCc1cc2ccc(C(C)(C#N)Cc3c(Cl)cccc3Cl)cc2[nH]c1=O` (stereo not drawn) [Compound 135], for which the IC50 was 50.1 nM.
Then `CCc1cc2ccc(C(C)(C#N)Cc3c(Cl)cccc3Br)cc2[nH]c1=O` (stereo not drawn) [Compound 136], with 50.1 nM; and `CCc1cc2ccc(C(C)(C#N)Cc3ccc(F)cc3F)cc2[nH]c1=O` (stereo not drawn) [Compound 137], with 63.1 nM; and `CCc1cc2ccc(C(C)(C#N)Cc3c(F)cccc3F)cc2[nH]c1=O` (stereo not drawn) [Compound 138], with 63.1 nM.
Then `CCc1cc2ccc(C(C)(C#N)Cc3ccc(F)cc3Br)cc2[nH]c1=O` (stereo not drawn) [Compound 139], with 79.4 nM; and `CCc1cc2ccc(C(C)(C#N)Cc3cccc(Cl)c3)cc2[nH]c1=O` (stereo not drawn) [Compound 140], with 126 nM.
Then `CCc1cc2ccc(C(C)(C#N)Cc3cc(Cl)cc(Cl)c3)cc2[nH]c1=O` (stereo not drawn) [Compound 141], with 126 nM; and `CCOc1ccccc1OCCC(C)(C#N)c1ccc2cc(CC)c(=O)[nH]c2c1` (stereo not drawn) [Compound 142], with 158 nM.
With `CCc1cc2ccc(C(C)(C#N)CCOc3cccc(C)c3)cc2[nH]c1=O` (stereo not drawn) [Compound 143], the IC50 is 158 nM.
